Laboratory results published in patent US20230272390A1, “COMPOSITIONS AND METHODS FOR HEMOGLOBIN PRODUCTION” (THE CHILDREN'S HOSPITAL OF PHILADELPHIA, priority 2020, published 2023).

How the values were obtained:
ZNF410 [1] = assay: RNA-seq in ZNF410 depleted differentiated HUDEP-2 cells; assay type: cell-based, human; conditions: vs non-targeting sgRNA
Description: HUDEP-2 cells were cultured and differentiated as described (Kurita, et al. (2013) PLoS One 8:e59890). Briefly, StemSpan™ Serum-Free Expansion Medium (SFEM) supplemented with 50 ng/ml human stem cell factor (SCF), 10 μM dexamethasone, 1 μg/ml doxycycline, 3 IU/ml erythropoietin and 1% penicillin/streptomycin was utilized for routine cell maintenance. Cell density was kept at 0.1-1×10^6/ml. HUDEP-2 cells were differentiated for 6-7 days in IMDM supplemented with 50 ng/ml human SCF, 3 IU/ml erythropoietin, 2.5% fetal bovine serum, 250 μg/ml holo-transferrin, 10 ng/ml heparin, 10 μg/ml insulin, 1 μg/ml doxycycline and 1% penicillin/streptomycin.
Lentivirus was produced as described (Grevet, et al. (2018) Science 361:285-290). Briefly, 10-20 μg of expression vectors, 5-10 μg of pVSVG (pMD2.G) and 7.5-15 μg of psPAX2 package plasmids, and 80 μl of 1 mg/ml polyethylenimine (PEI) were mixed, incubated for 15-20 minutes, and added to HEK293T cells grown in 10 cm plates to above 90% confluence. Media were replaced 6-8 hours post transfection, virus was collected 24 hours and 48 hours post-transfection and pooled. For infection, virus-containing supernatant was mixed with the indicated cell lines with 8 μg/ml polybrene and 10 mM HEPES, and then spun at 2250 rpm for 1.5 hours at room temperature. Infected HUDEP-2 cells were selected for mCherry+ or GFP+ cell sorting at 48 hours post-infection.
(§1) Total RNAs were purified as described above. Sequencing libraries were then constructed using 100 ng of purified total RNA using the ScriptSeg™ Complete Kit (Illumina cat #BHMR1224) according to manufacturer's protocol. RNA was subjected to rRNA depletion using the Ribo-Zero™ removal reagents and fragmented. First strand cDNA was synthesized using a 5′ tagged random hexamer, and reversely transcribed, followed by annealing of a 5′ tagged, 3′-end blocked terminal-tagged oligo for second strand synthesis. The Di-tagged cDNA fragments were purified, barcoded, and PCR-amplified for 15 cycles.
(§2) The size and quality of each library were evaluated by Bioanalyzer 2100 (Agilent Technologies, Santa Clara, Calif.), and quantified using qPCR. Libraries were sequenced in paired-end mode on a NextSeq 500 instrument to generate 2×76 bp reads using Illumina-supplied kits. The sequence reads were processed using the ENCODE3 long RNA-seq pipeline (encodeproject.org/pipelines/ENCPL002LPE/). In brief, reads were mapped to the human genome (hg38 assembly) using STAR, followed by RSEM for gene quantifications.
(§3) The normalized FPKM (fragments per kilo base per million mapped reads) for each gene was averaged in 2 replicates and then filtered to keep those with average FPKM at least 10 in both HUDEP-2 cells and primary erythroblasts, resulting in ˜5000 high abundant genes each cell type for further analysis. Log2 fold-change was calculated from FPKM of sgRNA targeting ZNF410 compared to control sgRNA (non-targeting sgRNA) using the DESeq2 method, and top changed genes were selected with fold-change at least 1.5 and p-value<0.05. Commonly changed genes in both independent sgRNAs were considered to be significant. Scatter plots were generated using ggplot2 in RStudio for all expressed genes (FPKM>5).
(§4) ZNF410 functions as a transcriptional activator (Benanti, et al. (2002) Mol. Cell Biol., 22:7385-7397). To understand how ZNF410 regulates the transcription of γ-globin genes, RNA-seq experiments were performed in ZNF410 depleted differentiated HUDEP-2 cells and primary human erythroblasts.

ZNF410 [2] = assay: RNA-seq in ZNF410 depleted primary human erythroblasts (CD34+ HSPC derived); assay type: cell-based; conditions: primary CD34+ cells (erythroblasts), vs non-targeting sgRNA
Description: Primary human CD34+ HSPCs from mobilized peripheral blood were purchased from the Fred Hutchinson Cancer Research Center. Human CD34+ HSPCs were differentiated using a three-phase culture system as described (Grevet, et al. (2018) Science 361:285-290). Briefly, IMDM supplemented with 3 IU/ml erythropoietin, 2.5% human male AB serum, 10 ng/ml heparin, and 10 μg/ml insulin was used as base medium. For phase I medium, 100 ng/ml human SCF, 5 ng/ml IL-3, and 250 μg/ml holo-transferrin were supplemented. For phase II medium, 100 ng/ml human SCF and 250 μg/ml holo-transferrin were added. For phase III medium, 1.25 mg/ml holo-transferrin was supplemented.
Commercial sgRNAs were purchased from IDT (Coralville, Iowa) or Synthego (Menlo Park, Calif.). To assemble the RNP complexes, 100 pmol sgRNA and 50 pmol SpCas9 protein (from IDT) were incubated at room temperature for 15 minutes. CD34+ HSPCs (50k-100k) at Day 3-4 of phase I culture were electroporated using P3 Primary Cell 4D Nucleofector™ X Kit (from Lonza) with the program DZ100 (Bak, et al. (2018) Nat. Protoc., 13:358-376).
as §1, §2, §3, §4

| Substance | log2(sgRNA/NT) AC092490.1 transcript (ZNF410 [1]) | log2(sgRNA/NT) AC104389.5 transcript (ZNF410 [1]) | log2(sgRNA/NT) AK1 transcript (ZNF410 [1]) | log2(sgRNA/NT) CD63 transcript (ZNF410 [1]) | log2(sgRNA/NT) CHD4 transcript (ZNF410 [1]) | log2(sgRNA/NT) CKB transcript (ZNF410 [1]) | log2(sgRNA/NT) FOS transcript (ZNF410 [1]) | log2(sgRNA/NT) H1F0 transcript (ZNF410 [1]) | log2(sgRNA/NT) HBG1/2 transcript (ZNF410 [1]) | log2(sgRNA/NT) PRG2 transcript (ZNF410 [1]) | log2(sgRNA/NT) S100A10 transcript (ZNF410 [1]) | log2(sgRNA/NT) SCARNA3 transcript (ZNF410 [1]) | log2(sgRNA/NT) TUBA1A transcript (ZNF410 [1]) | log2(sgRNA/NT) AC092490.1 transcript (ZNF410 [2]) | log2(sgRNA/NT) ACSL6 transcript (ZNF410 [2]) | log2(sgRNA/NT) CBX6 transcript (ZNF410 [2]) | log2(sgRNA/NT) CHD4 transcript (ZNF410 [2]) | log2(sgRNA/NT) HBG1/2 transcript (ZNF410 [2]) | log2(sgRNA/NT) HSPB1 transcript (ZNF410 [2]) | log2(sgRNA/NT) PAFAH1B3 transcript (ZNF410 [2]) | further results |
| --- | --- | --- | --- | --- | --- | --- | --- | --- | --- | --- | --- | --- | --- | --- | --- | --- | --- | --- | --- | --- | --- |
| ZNF410 sgRNA#2: sgRNA targeting the DNA-binding domain of ZNF410, CTCATCAGTGCCAAGTCTGT (SEQ ID NO: 5) (listed as DNA, chemistry not given here) | −1.50 | 4.01 | 1.83 | 1.75 | −1.23 | 2.24 | −1.88 | 2.13 | 4.28 | 2.17 | −1.59 | −1.30 | −1.07 | −1.47 | −1.47 | −2.01 | −1.08 | 1.75 | 2.15 | 1.40 | log2(sgRNA/NT) PLA2G6 transcript (ZNF410 [1]): −1.01; log2(sgRNA/NT) RNU5B-1 transcript (ZNF410 [1]): 3.60; log2(sgRNA/NT) RNU5E-1 transcript (ZNF410 [1]): 1.82; log2(sgRNA/NT) RNU6-11P transcript (ZNF410 [1]): −1.11; log2(sgRNA/NT) SCARNA18 transcript (ZNF410 [1]): −1.20; log2(sgRNA/NT) SLC2A3P1 transcript (ZNF410 [1]): −1.49; log2(sgRNA/NT) SNORD97 transcript (ZNF410 [1]): 2.29; log2(sgRNA/NT) AC104389.5 transcript (ZNF410 [2]): 1.43; log2(sgRNA/NT) AC130456.3 transcript (ZNF410 [2]): −2.03; log2(sgRNA/NT) CDKN1A transcript (ZNF410 [2]): 1.38; log2(sgRNA/NT) IFI27 transcript (ZNF410 [2]): 1.78; log2(sgRNA/NT) KDM7A transcript (ZNF410 [2]): −1.32; log2(sgRNA/NT) PKN1 transcript (ZNF410 [2]): 1.43; log2(sgRNA/NT) PRDX5 transcript (ZNF410 [2]): −1.09; log2(sgRNA/NT) RN7SL471P transcript (ZNF410 [2]): 1.60; log2(sgRNA/NT) SELENOW transcript (ZNF410 [2]): 1.67; log2(sgRNA/NT) SMOX transcript (ZNF410 [2]): −1.24; log2(sgRNA/NT) STUB1 transcript (ZNF410 [2]): 1.40; log2(sgRNA/NT) TMCC2 transcript (ZNF410 [2]): −1.69; log2(sgRNA/NT) ZNF410 transcript (ZNF410 [2]): −1.24 |
| ZNF410 sgRNA#1: sgRNA targeting the DNA-binding domain of ZNF410, GAACCACCAGATGTTTTCGG (SEQ ID NO: 4) (listed as DNA, chemistry not given here) | −1.45 | 3.95 | 1.99 | 1.90 | −0.99 | 2.44 | −1.32 | 2.41 | 4.26 | 2.09 | −1.60 | −0.89 | −1.06 | −1.50 | −1.67 | −1.56 | −0.93 | 1.47 | 2.01 | 1.35 | log2(sgRNA/NT) ATF5 transcript (ZNF410 [1]): 1.65; log2(sgRNA/NT) GLIPR2 transcript (ZNF410 [1]): −1.14; log2(sgRNA/NT) MIF transcript (ZNF410 [1]): 1.92; log2(sgRNA/NT) PPP4R1 transcript (ZNF410 [1]): −0.95; log2(sgRNA/NT) RF00019 transcript (ZNF410 [1]): −2.43; log2(sgRNA/NT) TMCC2 transcript (ZNF410 [1]): −1.18; log2(sgRNA/NT) TMSB10 transcript (ZNF410 [1]): 1.79; log2(sgRNA/NT) COA4 transcript (ZNF410 [2]): 1.30; log2(sgRNA/NT) DYNLT1 transcript (ZNF410 [2]): 1.27; log2(sgRNA/NT) GPCPD1 transcript (ZNF410 [2]): −0.93; log2(sgRNA/NT) ISOC2 transcript (ZNF410 [2]): 1.34; log2(sgRNA/NT) PKN1 transcript (ZNF410 [2]): 1.32; log2(sgRNA/NT) PRDX5 transcript (ZNF410 [2]): −1.00; log2(sgRNA/NT) RPS19BP1 transcript (ZNF410 [2]): 1.42; log2(sgRNA/NT) SELENOW transcript (ZNF410 [2]): 1.55; log2(sgRNA/NT) SMOX transcript (ZNF410 [2]): −1.45; log2(sgRNA/NT) SPC25 transcript (ZNF410 [2]): −0.93; log2(sgRNA/NT) STUB1 transcript (ZNF410 [2]): 1.46; log2(sgRNA/NT) TMCC2 transcript (ZNF410 [2]): −2.01; log2(sgRNA/NT) ZNF410 transcript (ZNF410 [2]): −1.49 |
